{"source": "patent US9976141B2", "about": "“Compositions and methods for inhibiting gene expression of Hif2alpha” (Arrowhead Madison Inc., priority 2015, dated 2018)", "test_system": "human (tumor) Hif2α (EPAS1) mRNA", "test": "Hif2α knockdown in orthotopic RCC tumor bearing mice, single injection of RNAi trigger-delivery polymer conjugate, RT-qPCR (Table 7)", "format": "in vivo", "details": "single tail vein injection, relative to isotonic glucose", "protocol": "A pCR3.1 expression vector expressing the reporter gene secreted alkaline phosphatase (SEAP) under the CMV promoter was prepared by directional cloning of the SEAP coding sequence PCR amplified from Clontech's pSEAP2-basic vector. Convenient restriction sites were added onto primers used to amplify the SEAP coding sequence for cloning into the pCR3.1 vector (Invitrogen). The resultant construct pCR3-SEAP was used to create a SEAP-expressing A498 ccRCC cell line. Briefly, pCR3-SEAP plasmid was transfected into A498 ccRCC cells by electroporation following manufacturer's recommendation. Stable transfectants were selected by G418 resistance. Selected A498-SEAP clones were evaluated for SEAP expression and integration stability.\nFemale athymic nude mice were anesthetized with ˜3% isoflourane and placed in the right lateral decubitus position. A small, 0.5-1 cm, longitudinally abdominal incision in the left flank was made. Using a moist cotton swab, the left kidney was lifted out of the peritoneum and gently stabilized. Just before injection, a 1.0 ml syringe was filled with the cell/Matrigel mixture and a 27 gauge needle catheter was attached to the syringe tip. The filled syringe was then attached to a syringe pump (Harvard Apparatus, model PHD2000) and primed to remove air. The tip of a 27-gauge needle catheter attached to a syringe was inserted just below the renal capsule near the caudal pole and the tip of the needle was then carefully advanced cranially along the capsule 3-4 mm. A 10 μl aliquot of 2:1 (vol:vol) cell/matrigel mixture containing about 300,000 cells was slowly injected into the kidney parenchyma using a syringe pump. The needle was left in the kidney for 15-20 seconds to ensure the injection was complete. The needle was then removed from the kidney and a cotton swab was placed over the injection site for 30 seconds to prevent leakage of the cells or bleeding. The kidney was then gently placed back into the abdomen and the abdominal wall was closed. Serum was collected every 7-14 days after implantation to monitor tumor growth using a commercial SEAP assay kit. For most studies, tumor mice were used 5-6 weeks after implantation, when tumor measurements were typically around 4-8 mm.\nRGD targeted HiF2α-RNAi trigger delivery conjugates. Delivery polymers were modified using RGD-PEG-HyNic, RGD-PEG-ACit-PNP, or RDG-PEG-FCitFP-TFP and PEG-dipeptide modifying agents. The indicated amount of polymer 126 or 100A polymer was modified with 8×PEG12-ACit-PABC-PNP/0.5× aldehyde-PEG24-FCit-PABC-PNP (with RGD mimic #1-PEG-HyNic using protocol #1) and the indicated amount of the indicated Hif2α RNAi trigger. Polymer 064 was modified according to protocol 7. Kidney RCC tumor-bearing mice were generated as described and treated with a single tail vein injection of isotonic glucose (G1) or the indicated Hif2α RNAi trigger-delivery polymer conjugate. Mice were euthanized at the indicated time after injection and total RNA was prepared from kidney tumor using Trizol reagent following manufacturer's recommendation. Relative HiF2α mRNA levels were determined by RT-qPCR as described below and compared to mice treated with delivery buffer (isotonic glucose) only.\nIn preparation for quantitative PCR, total RNA was isolated from tissue samples homogenized in TriReagent (Molecular Research Center, Cincinnati, Ohio) following the manufacturer's protocol. Approximately 500 ng RNA was reverse-transcribed using the High Capacity cDNA Reverse Transcription Kit (Life Technologies). For human (tumor) Hif2α (EPAS1) expression, pre-manufactured TaqMan gene expression assays for human Hif2α (Catalog #4331182) and CycA (PPIA) Catalog #: 4326316E) were used in biplex reactions in triplicate using TaqMan Gene Expression Master Mix (Life Technologies) or VeriQuest Probe Master Mix (Affymetrix). […]", "key": {"[1]": {"details": "RNAi trigger 50 μg, polymer 064 125 μg"}, "[2]": {"details": "RNAi trigger 80 μg, polymer 126 400 μg"}}, "data": [{"substance": "AD03260 (antisense AUUCAUGAAAUCGUUACGUUG; sense ACGUAACGAUUUCAUGAATT; Hif2alpha RNAi agent antisense strand; modified_base 2,8,10,14 /mod_base = “2′-deoxy-2′-fluoro corresponding nucleoside”; modified_base 1,3,4,5,6,7,9,11,12,13,15,16,17,18,19,20,21 /mod_base = “2′-O-methyl corresponding nucleoside”; modified_base 2,3,20,21 /mod_base = “5′-phosphorothioate corresponding nucleotide”; Hif2alpha RNAi agent sense strand; modified_base 7,8,9 /mod_base = “2′-deoxy-2′-fluoro corresponding nucleoside”; modified_base 1,2,3,4,5,6,10,11,12,13,14,15,16,17 /mod_base = “2′-O-methyl corresponding nucleoside”; modified_base 20 /mod_base = “3′-3′-linked nucleotide”; modified_b)", "values": [{"measurement": "Relative Expression day 4 (Hif2α mRNA in kidney tumor)", "setting": "[1]", "result": 0.175}]}, {"substance": "AD01293 (antisense TUUCAUGAAAUCGUUACGUUGGCUGU; sense UAUAUCAACGUAACGAUUUCAUGAAA; Hif2alpha RNAi agent antisense strand; modified_base 25 modified base = “2′-hydroxy corresponding nucleoside”; modified_base 2,4,6,8,10,14,16,18,20 /mod_base = “2′-deoxy-2′-fluoro corresponding nucleoside”; modified_base 3,5,7,9,11,12,13,15,17,19,21,22,23,24,26 /mod_base = “2′-O-methyl corresponding nucleoside”; modified_base 2,3,23,24 /mod_base = “5′-phosphorothioate corresponding nucleotide”; Hif2alpha RNAi agent sense strand; modified_base 2,4 modified base = “2′-hydroxy corresponding nucleoside”; modified_base 6,8,10,12,14,15,16,18,20,22,24,26 /mod_base = “2′-deoxy-2′-fluoro correspondin)", "values": [{"measurement": "Relative Expression day 4 (Hif2α mRNA in kidney tumor)", "setting": "[2]", "result": 0.20}]}, {"substance": "AD01659 (antisense TUUCAUGAAAUCGUUACGUTT; sense ACGUAACGAUUUCAUGAAAT; Hif2alpha RNAi agent antisense strand; modified_base 2,4,6,8,10,12,14,15,18 /mod_base = “2′-deoxy-2′-fluoro corresponding nucleoside”; modified_base 3,5,7,9,11,13,16,17,19 /mod_base = “2′-O-methyl corresponding nucleoside”; modified_base 2,3,21 /mod_base = “5′-phosphorothioate corresponding nucleotide”; Hif2alpha RNAi agent sense strand; modified_base 1,3,4,7,9,11,13,15,17,19 /mod_base = “2′-deoxy-2′-fluoro corresponding nucleoside”; modified_base 2,5,6,8,10,12,14,16,18 /mod_base = “2′-O-methyl corresponding nucleoside”; modified_base 20 /mod_base = “3′-3′-linked nucleotide”; modified_base 1)", "values": [{"measurement": "Relative Expression day 4 (Hif2α mRNA in kidney tumor)", "setting": "RNAi trigger 100 μg, polymer 100A 250 μg", "result": 0.249}]}, {"substance": "AD03254 (antisense AUUCAUGAAAUCGUUACGUUG; sense ACGUAACGAUUUCAUGAAUT; Hif2alpha RNAi agent antisense strand; modified_base 2,4,6,8,14 /mod_base = “2′-deoxy-2′-fluoro corresponding nucleoside”; modified_base 1,3,5,7,9,10,11,12,13,15,16,17,18,19,20,21 /mod_base = “2′-O-methyl corresponding nucleoside”; modified_base 2,3,20,21 /mod_base = “5′-phosphorothioate corresponding nucleotide”; Hif2alpha RNAi agent sense strand; modified_base 7,8,9 /mod_base = “2′-deoxy-2′-fluoro corresponding nucleoside”; modified_base 1,2,3,4,5,6,10,11,12,13,14,15,16,17,18,19 /mod_base = “2′-O-methyl corresponding nucleoside”; modified_base 20 /mod_base = “3′-3′-linked nucleotide”; modi)", "values": [{"measurement": "Relative Expression day 4 (Hif2α mRNA in kidney tumor)", "setting": "[1]", "result": 0.295}]}, {"substance": "AD03264 (antisense UUUCAUGAAAUCGUUACGUUG; sense ACGUAACGAUUUCAUGAAAT; Hif2alpha RNAi agent antisense strand; modified_base 2,3,8,10,14 /mod_base = “2′-deoxy-2′-fluoro corresponding nucleoside”; modified_base 1,4,5,6,7,9,11,12,13,15,16,17,18,19,20,21 /mod_base = “2′-O-methyl corresponding nucleoside”; modified_base 2,3,20,21 /mod_base = “5′-phosphorothioate corresponding nucleotide”; Hif2alpha RNAi agent sense strand; modified_base 7,8,9 /mod_base = “2′-deoxy-2′-fluoro corresponding nucleoside”; modified_base 1,2,3,4,5,6,10,11,12,13,14,15,16,17,18,19 /mod_base = “2′-O-methyl corresponding nucleoside”; modified_base 20 /mod_base = “3′-3′-linked nucleotide”; modi)", "values": [{"measurement": "Relative Expression day 4 (Hif2α mRNA in kidney tumor)", "setting": "[1]", "result": 0.264}]}, {"substance": "AD01025 (antisense TCUAGCAACAAAACCUUAATT; sense UUAAGGUUUUGUUGCUAGAT; Hif2alpha RNAi agent antisense strand; modified_base 2,4,6,8,10,12,14,16,18 /mod_base = “2′-deoxy-2′-fluoro corresponding nucleoside”; modified_base 3,5,7,9,11,13,15,17,19 /mod_base = “2′-O-methyl corresponding nucleoside”; modified_base 21 /mod_base = “5′-phosphorothioate corresponding nucleotide”; Hif2alpha RNAi agent sense strand; modified_base 1,3,5,7,9,11,13,15,17,19 /mod_base = “2′-deoxy-2′-fluoro corresponding nucleoside”; modified_base 2,4,6,8,10,12,14,16,18 /mod_base = “2′-O-methyl corresponding nucleoside”; modified_base 20 /mod_base = “3′-3′-linked nucleotide”; modified_base 1 /mo)", "values": [{"measurement": "Relative Expression day 4 (Hif2α mRNA in kidney tumor)", "setting": "[2]", "result": 0.34}]}, {"substance": "AD01405 (antisense TUUCAUGAAAUCGUUACGUCGGCUAU; sense UAUAUCGACGUAACGAUUUCAUGAAA; Hif2alpha RNAi agent antisense strand; modified_base 25 modified base = “2′-hydroxy corresponding nucleoside”; modified_base 2,4,6,10,12,14,16,18,20 /mod_base = “2′-deoxy-2′-fluoro corresponding nucleoside”; modified_base 3,5,7,9,11,13,15,17,19,21,22,23,24,26 /mod_base = “2′-O-methyl corresponding nucleoside”; modified_base 8 /mod_base = “2′-3′ seco corresponding nucleotide”; modified_base 2,3,23,; Hif2alpha RNAi agent sense strand; modified_base 2,4 modified base = “2′-hydroxy corresponding nucleoside”; modified_base 6,8,10,12,14,16,18,20,22,24,26 /mod_base = “2′-deoxy-2′-fluoro correspondi)", "values": [{"measurement": "Relative Expression day 4 (Hif2α mRNA in kidney tumor)", "setting": "RNAi trigger 150 μg, polymer 100A 300 μg", "result": 0.51}]}]}
